From ChEMBL document CHEMBL1148080, “Identification of an activator of the retinoid X receptor” (J Nat Prod, 1994)
Active and inactive are the calls of the source. The rule behind the calls is not given here.

Biological target: T1, Retinoic acid receptor alpha (Homo sapiens) (UniProt P10276)
T1 sequence (whole entry): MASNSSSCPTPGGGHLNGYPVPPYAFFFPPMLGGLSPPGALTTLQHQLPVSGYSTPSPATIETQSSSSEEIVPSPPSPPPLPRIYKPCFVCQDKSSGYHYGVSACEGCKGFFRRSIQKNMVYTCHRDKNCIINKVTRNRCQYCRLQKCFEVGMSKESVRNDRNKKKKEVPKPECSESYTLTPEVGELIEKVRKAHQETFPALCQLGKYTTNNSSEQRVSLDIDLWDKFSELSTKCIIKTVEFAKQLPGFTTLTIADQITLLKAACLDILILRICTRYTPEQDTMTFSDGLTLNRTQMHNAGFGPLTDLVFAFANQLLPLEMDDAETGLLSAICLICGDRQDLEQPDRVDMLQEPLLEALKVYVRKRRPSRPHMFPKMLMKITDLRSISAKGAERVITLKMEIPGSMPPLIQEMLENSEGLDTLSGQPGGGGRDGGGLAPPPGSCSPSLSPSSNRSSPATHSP
Assay: Transactivation of RARalpha expressed in mammalian cells assessed as effect on palindromic thyroid hormone response element-driven transcriptional activation by luciferase reporter gene assay
Format: cell-based

## CC1=C(/C=C/C(C)=C\C=C\C(C)=C\C(=O)O[C@@H]2O[C@H](CO)[C@@H](O)[C@H](O)[C@H]2O)C(C)(C)CCC1
  Activity: Active
